Laboratory results published in patent publication US20250215030A1, “STAT MODULATORS AND USES THEREOF” (Recludix Pharma, Inc., priority 2022, published 2025).
pIC50: −log10 of the molar value.

Experiments:
[1] = biological target: T1, Recombinant STAT3 protein (STAT3(G127-I722)) (Homo sapiens, UniProt P40763); assay: STAT3 Fluorescence Polarization (FP) Assay; type: binding; conditions: STAT3(G127-I722) 25 nM, probe 5-FAM-GpYLPQTV-NH2 2 nM, 45-minute incubation
T1 construct: STAT3(G127-I722)
Experimental: STAT3 Fluorescence Polarization (FP) Assay
An FP assay was developed to determine IC50 values for test substances. Recombinant STAT3 protein (STAT3(G127-I722)) at 25 nM was combined with a fluorescently labeled, phosphotyrosine peptide probe (5-FAM-GpYLPQTV-NH2) at 2 nM in FP buffer (10 mM HEPES pH 7.4, 50 mM NaCl, 1 mM EDTA, 0.05% Tween 20, 2 mM DTT). 50 μL of STAT3-probe mixture was added to serial diluted compounds in black, 96-well plates (Greiner BioOne 655076) to a final concentration of 1% DMSO. Reaction components were mixed, and FP was measured after 45-minute incubation at room temperature using a Tecan Spark multimode plate reader. FP signal (mP) was plotted against the log concentration of the test substances and IC50 values were calculated by nonlinear regression analysis using GraphPad Prism software. For STAT3 FP assay, A=≤100 nM; B=>100-1000 nM; C=>1-10 μM; and D=>10 μM.

[2] = biological target: T2, Recombinant STAT6 protein (STAT6(W123-T658)) (Homo sapiens, UniProt P42226); assay: STAT6 Fluorescence Polarization (FP) Assay; type: binding; conditions: STAT6(W123-T658) 250 nM, probe 5-FAM-ApYKPFQDLI-NH2 2 nM, 45-minute incubation
T2 construct: STAT6(W123-T658)
T2 sequence (P42226 123-658): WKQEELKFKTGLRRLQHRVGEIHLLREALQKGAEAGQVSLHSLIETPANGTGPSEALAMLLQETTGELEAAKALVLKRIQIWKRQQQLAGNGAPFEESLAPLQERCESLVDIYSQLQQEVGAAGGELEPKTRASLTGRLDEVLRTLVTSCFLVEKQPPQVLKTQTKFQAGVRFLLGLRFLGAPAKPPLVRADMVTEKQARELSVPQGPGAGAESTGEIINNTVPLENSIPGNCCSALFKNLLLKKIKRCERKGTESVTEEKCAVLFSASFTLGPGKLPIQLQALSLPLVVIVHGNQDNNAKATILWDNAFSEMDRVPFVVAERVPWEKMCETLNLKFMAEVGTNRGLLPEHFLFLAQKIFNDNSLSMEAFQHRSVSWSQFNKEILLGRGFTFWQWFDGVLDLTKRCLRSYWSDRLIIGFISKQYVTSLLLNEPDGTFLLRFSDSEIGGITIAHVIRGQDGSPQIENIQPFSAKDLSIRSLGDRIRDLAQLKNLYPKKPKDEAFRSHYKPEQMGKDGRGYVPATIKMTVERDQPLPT
Experimental: STAT6 Fluorescence Polarization (FP) Assay
An FP assay was developed to determine IC50 values for test substances. Recombinant STAT6 protein (STAT6(W123-T658)) at 250 nM was combined with a fluorescently labeled, phosphotyrosine peptide probe (5-FAM-ApYKPFQDLI-NH2) at 2 nM in FP buffer (10 mM HEPES pH 7.4, 50 mM NaCl, 1 mM EDTA, 0.05% Tween 20, 2 mM DTT). 50 μL of STAT6-probe mixture was added to serial diluted compounds in black, 96-well plates (Greiner BioOne 655076) to a final concentration of 1% DMSO. Reaction components were mixed, and FP was measured after 45-minute incubation at room temperature using a Tecan Spark multimode plate reader. FP signal (mP) was plotted against the log concentration of the test substances and IC50 values were calculated by nonlinear regression analysis using GraphPad Prism software. For STAT6 FP assay, A=≤300 nM; B=>300-3000 nM; C=>3-30 μM; and D=>30 μM.

T1 sequence (P40763 127-722, species assumed): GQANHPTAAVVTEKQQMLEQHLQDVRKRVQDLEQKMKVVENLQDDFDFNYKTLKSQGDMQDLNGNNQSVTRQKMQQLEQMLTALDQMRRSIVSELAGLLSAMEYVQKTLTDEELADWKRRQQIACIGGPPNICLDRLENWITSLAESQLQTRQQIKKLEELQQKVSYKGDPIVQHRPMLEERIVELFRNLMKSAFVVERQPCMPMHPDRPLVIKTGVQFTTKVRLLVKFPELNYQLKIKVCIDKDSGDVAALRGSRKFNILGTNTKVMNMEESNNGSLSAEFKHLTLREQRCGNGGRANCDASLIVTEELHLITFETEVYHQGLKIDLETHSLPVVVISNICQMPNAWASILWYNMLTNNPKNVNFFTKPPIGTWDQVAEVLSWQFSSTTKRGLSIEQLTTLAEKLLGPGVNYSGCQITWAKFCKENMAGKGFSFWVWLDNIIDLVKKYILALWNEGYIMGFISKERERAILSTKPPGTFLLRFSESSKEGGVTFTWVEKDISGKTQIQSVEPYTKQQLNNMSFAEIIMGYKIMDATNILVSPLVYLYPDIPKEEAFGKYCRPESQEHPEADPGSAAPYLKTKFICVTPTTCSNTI

| SMILES | pIC50 [1] | pIC50 [2] |
| --- | --- | --- |
| O=C(N[C@H]1C[C@@H]2C[C@@H]2C[C@H]2CC[C@@H](C(=O)N3CC(C(=O)N4CCOCC4)C3)N2C1=O)c1cc2cc(C(F)P(=O)(O)O)ccc2s1 (stereo partly drawn) [Compound 18, (fluoro(2-(((3S,6S,7aS,8aR,9aR)-3-(3-(morpholine-4-carbonyl)azetidine-1-carbonyl)-5-oxodecahydro-1H-cyclopropa[d]pyrrolo[1,2-a]azocin-6-yl)carbamoyl)benzo[b]thiophen-5-yl)methyl)phosphonic acid] | > 7.00 | 4.52 to 5.52 |
| C[C@@H]1[C@@H](n2ccnc2)CN1C(=O)[C@@H]1CC[C@@H]2C[C@H]3C[C@H]3C[C@H](NC(=O)c3cc4cc(C(F)(F)P(=O)(O)O)ccc4s3)C(=O)N21 [Compound 19, ((2-(((3S,6S,7aS,8aR,9aR)-3-((2R,3S)-3-(1H-imidazol-1-yl)-2-methylazetidine-1-carbonyl)-5-oxodecahydro-1H-cyclopropa[d]pyrrolo[1,2-a]azocin-6-yl)carbamoyl)benzo[b]thiophen-5-yl)difluoromethyl)phosphonic acid] | > 7.00 | 4.52 to 5.52 |
| O=C(NC1C[C@@H]2C[C@@H]2C[C@H]2CC[C@@H](C(=O)N3CC(C(=O)N4CCOCC4)C3)N2C1=O)c1cc2cc(CP(=O)(O)O)ccc2s1 (stereo partly drawn) [Compound 20, ((2-(((3S,7aS,8aR,9aR)-3-(3-(morpholine-4-carbonyl)azetidine-1-carbonyl)-5-oxodecahydro-1H-cyclopropa[d]pyrrolo[1,2-a]azocin-6-yl)carbamoyl)benzo[b]thiophen-5-yl)methyl)phosphonic acid] | 5.00 to 6.00 | < 4.52 |
| O=C(N[C@H]1C[C@@H]2C[C@@H]2C[C@H]2CC[C@@H](C(=O)N3CC(n4ccnc4)C3)N2C1=O)c1cc2cc(CP(=O)(O)O)ccc2s1 [Compound 24, ((2-(((3S,6S,7aS,8aR,9aR)-3-(3-(1H-imidazol-1-yl)azetidine-1-carbonyl)-5-oxodecahydro-1H-cyclopropa[d]pyrrolo[1,2-a]azocin-6-yl)carbamoyl)benzo[b]thiophen-5-yl)methyl)phosphonic acid] | 6.00 to 7.00 | < 4.52 |
| O=C(N[C@H]1C[C@H]2C[C@H]2C[C@H]2CC[C@@H](C(=O)N3CC(n4ccnc4)C3)N2C1=O)c1cc2cc(CP(=O)(O)O)ccc2s1 [Compound 25, ((2-(((3S,6S,7aR,8aS,9aR)-3-(3-(1H-imidazol-1-yl)azetidine-1-carbonyl)-5-oxodecahydro-1H-cyclopropa[d]pyrrolo[1,2-a]azocin-6-yl)carbamoyl)benzo[b]thiophen-5-yl)methyl)phosphonic acid] | 6.00 to 7.00 | < 4.52 |

Next, values leading:

| pIC50 [1] | pIC50 [2] | SMILES |
| --- | --- | --- |
| > 7.00 | 4.52 to 5.52 | O=C(N[C@H]1C[C@H]2C[C@H]2C[C@H]2CC[C@@H](C(=O)N3CC(c4cccnc4)C3)N2C1=O)c1cc2cc([C@H](F)P(=O)(O)O)ccc2s1 [Compound 21, ((R)-fluoro(2-(((3S,6S,7aR,8aS,9aR)-5-oxo-3-(3-(pyridin-3-yl)azetidine-1-carbonyl)decahydro-1H-cyclopropa[d]pyrrolo[1,2-a]azocin-6-yl)carbamoyl)benzo[b]thiophen-5-yl)methyl)phosphonic acid] |
| 6.00 to 7.00 | < 4.52 | O=C(N[C@H]1C[C@H]2C[C@H]2C[C@H]2CC[C@@H](C(=O)N3CC(c4cccnc4)C3)N2C1=O)c1cc2cc(CP(=O)(O)O)ccc2s1 [Compound 22, ((2-(((3S,6S,7aR,8aS,9aR)-5-oxo-3-(3-(pyridin-3-yl)azetidine-1-carbonyl)decahydro-1H-cyclopropa[d]pyrrolo[1,2-a]azocin-6-yl)carbamoyl)benzo[b]thiophen-5-yl)methyl)phosphonic acid] |
| 6.00 to 7.00 | < 4.52 | O=C(N[C@H]1C[C@H]2C[C@H]2C[C@H]2CC[C@@H](C(=O)N3CC(c4ccccn4)C3)N2C1=O)c1cc2cc(CP(=O)(O)O)ccc2s1 [Compound 23, ((2-(((3S,6S,7aR,8aS,9aR)-5-oxo-3-(3-(pyridin-2-yl)azetidine-1-carbonyl)decahydro-1H-cyclopropa[d]pyrrolo[1,2-a]azocin-6-yl)carbamoyl)benzo[b]thiophen-5-yl)methyl)phosphonic acid] |
